Measurements from patent US5840684A, “Glycopeptide antibiotic derivatives” (Eli Lilly and Company, priority 1995, dated 1998).
≈ marks a conversion by molar mass, not a printed value.

How the values were obtained:
[1] = test system: Staphylococcus aureus S13E; assay type: cell-based
Description: (§1) The MIC's were determined using a standard broth micro-dilution assay.

[2] = test system: Staphylococcus aureus SA1199B; assay type: cell-based
Description: as §1

[3] = test system: Entercoccus faecium 180-1; assay: broth micro-dilution MIC; assay type: cell-based
Description: as §1

[4] = test system: Entercoccus faecium 276; assay: broth micro-dilution MIC; assay type: cell-based
Description: as §1

[5] = test system: Staphylococcus aureus 446; assay: broth micro-dilution MIC; assay type: cell-based
Description: as §1

[6] = test system: Staphylococcus aureus 447; assay: broth micro-dilution MIC; assay type: cell-based
Description: as §1

[7] = test system: Staphylococcus aureus 489; assay: broth micro-dilution MIC; assay type: cell-based
Description: as §1

[8] = test system: Staphylococcus aureus 491; assay: broth micro-dilution MIC; assay type: cell-based
Description: as §1

[9] = test system: Staphylococcus aureus SA1199A; assay: broth micro-dilution MIC; assay type: cell-based
Description: as §1

[10] = test system: Staphylococcus aureus SA1199; assay: broth micro-dilution MIC; assay type: cell-based
Description: as §1

[11] = test system: Staphylococcus aureus X400; assay: broth micro-dilution MIC; assay type: cell-based
Description: as §1

[12] = test system: Staphylococcus aureus X778; assay: broth micro-dilution MIC; assay type: cell-based
Description: as §1

[13] = test system: Streptococcus pyogenes C203; assay: broth micro-dilution MIC; assay type: cell-based
Description: as §1

[14] = test system: Entercoccus faecium 180; assay: broth micro-dilution MIC; assay type: cell-based; details: Entercoccus faecium 180
Description: (§2) The formula I compounds have in vitro and in vivo activity against Gram-positive pathogenic bacteria. The MIC's were determined using a standard broth micro-dilution assay.

[15] = test system: Entercoccus faecium 2041; assay: broth micro-dilution MIC; assay type: cell-based; details: Entercoccus faecium 2041
Description: as §2

[16] = test system: Enterococcus gallinarum 245; assay: broth micro-dilution MIC; assay type: cell-based; details: Enterococcus gallinarum 245
Description: as §2

[17] = test system: Escherichia coli EC14; assay: broth micro-dilution MIC; assay type: cell-based
Description: as §2

[18] = test system: Staphylococcus epidermidis 270; assay: broth micro-dilution MIC; assay type: cell-based
Description: as §2

[19] = test system: Staphylococcus haemolyticus 105; assay: broth micro-dilution MIC; assay type: cell-based
Description: as §2

[20] = test system: Staphylococcus haemolyticus 415; assay: broth micro-dilution MIC; assay type: cell-based
Description: as §2

[21] = test system: Streptococcus pneumoniae P1; assay: broth micro-dilution MIC; assay type: cell-based
Description: as §2

[22] = test system: Stapylococcus aureus; assay: mouse protection, experimentally-induced infection; assay type: in vivo; details: mice infected with Stapylococcus aureus, two doses
[23] = test system: Streptococcus pyogenes; assay: mouse protection, experimentally-induced infection; assay type: in vivo; details: mice infected with Streptococcus pyogenes, two doses
[24] = test system: Streptococcus pneumoniae; assay: mouse protection, experimentally-induced infection; assay type: in vivo; details: mice infected with Streptococcus pneumoniae, two doses
[25] = test system: vancomycin-resistant enterococci; assay: broth micro-dilution, mean geometric MIC; assay type: cell-based, Enterococcus faecium and Enterococcus faecalis; details: enterococci, 24-hour incubation
[26] = test system: vancomycin-susceptible enterococci; assay: broth micro-dilution, mean geometric MIC; assay type: cell-based, Enterococcus faecium and Enterococcus faecalis; details: enterococci, 24-hour incubation
[27] = test system: Pediococcus acidilacti; assay: agar dilution MIC, lactic acid bacteria; assay type: cell-based; details: Pediococcus acidilacti (mean of 10), brain-heart infusion agar
[28] = test system: Pediococcus pentosaceus; assay: agar dilution MIC, lactic acid bacteria; assay type: cell-based; details: Pediococcus pentosaceus (mean of 2), brain-heart infusion agar
[29] = test system: Leuconostoc lactis; assay: agar dilution MIC, lactic acid bacteria; assay type: cell-based; details: Leuconostoc lactis (mean of 2), brain-heart infusion agar
[30] = test system: Leuconostoc mesenteroides; assay: agar dilution MIC, lactic acid bacteria; assay type: cell-based; details: Leuconostoc mesenteroides (mean of 4), brain-heart infusion agar
[31] = test system: Leuconostoc pseudomesenteroides; assay: agar dilution MIC, lactic acid bacteria; assay type: cell-based; details: brain-heart infusion agar
[32] = test system: Leuconostoc citreum; assay: agar dilution MIC, lactic acid bacteria; assay type: cell-based; details: brain-heart infusion agar
[33] = test system: Lactobacillus confusus; assay: agar dilution MIC, lactic acid bacteria; assay type: cell-based; details: Lactobacillus confusus, brain-heart infusion agar

Compound	MIC [1]	MIC [2]	MIC [3]	MIC [4]	MIC [5]	MIC [6]	MIC [8]	MIC [10]	MIC [12]	MIC [14]	MIC [15]	MIC [19]	MIC [20]	ED50 [22]	ED50 [23]	ED50 [24]	mean geometric MIC, Vancomycin Resistant Strains [25]	mean geometric MIC, Vancomycin Sensitive Strains [26]	MIC [27]	MIC [28]	other results
CNC(CC(C)C)C(=O)NC1C(=O)NC(CC(N)=O)C(=O)NC2C(=O)NC3C(=O)NC(C(=O)NC(C(=O)O)c4cc(O)cc(O)c4-c4cc3ccc4O)C(OC3CC(C)(N)C(O)C(C)O3)c3ccc(c(Cl)c3)Oc3cc2cc(c3OC2OC(CO)C(O)C(O)C2OC2CC(C)(NCc3ccc(Oc4ccccc4)cc3)C(O)C(C)O2)Oc2ccc(cc2Cl)C1O (stereo not drawn) [Compound 4, p-phenoxybenzyl·A82846B]	≤ 0.06 µg/mL	≤ 0.06 µg/mL	≤ 0.06 µg/mL	≤ 0.06 µg/mL	≤ 0.06 µg/mL	0.25 µg/mL (≈ 0.141 µM)	≤ 0.06 µg/mL	≤ 0.06 µg/mL	≤ 0.06 µg/mL	0.125 µg/mL (≈ 0.0704 µM)	≤ 0.06 µg/mL	0.5 µg/mL (≈ 0.282 µM)	0.5 µg/mL (≈ 0.282 µM)	0.36 mg/kg/2	0.012 mg/kg/2	0.036 mg/kg/2	0.50 µg/mL	0.062 µg/mL	7.5 µg/mL (≈ 4.23 µM)	16 µg/mL (≈ 9.02 µM)	MIC [7]: ≤ 0.06 µg/mL; MIC [9]: ≤ 0.06 µg/mL; MIC [11]: ≤ 0.06 µg/mL; MIC [13]: ≤ 0.06 µg/mL; MIC [16]: ≤ 0.06 µg/mL; MIC [17]: > 64 µg/mL; MIC [18]: ≤ 0.06 µg/mL; MIC [21]: ≤ 0.06 µg/mL; MIC [29]: 16 µg/mL (≈ 9.02 µM); MIC [30]: 16 µg/mL (≈ 9.02 µM); MIC [31]: 32 µg/mL (≈ 18 µM); MIC [32]: 128 µg/mL (≈ 72.1 µM); MIC [33]: 32 µg/mL (≈ 18 µM)
CNC(CC(C)C)C(=O)NC1C(=O)NC(CC(N)=O)C(=O)NC2C(=O)NC3C(=O)NC(C(=O)NC(C(=O)O)c4cc(O)cc(O)c4-c4cc3ccc4O)C(OC3CC(C)(N)C(O)C(C)O3)c3ccc(c(Cl)c3)Oc3cc2cc(c3OC2OC(CO)C(O)C(O)C2OC2CC(C)(NCc3ccc(OCc4ccccc4)cc3)C(O)C(C)O2)Oc2ccc(cc2Cl)C1O (stereo not drawn) [Compound 5]	1 µg/mL (≈ 0.559 µM)	≤ 0.06 µg/mL	≤ 0.06 µg/mL	≤ 0.06 µg/mL	1 µg/mL (≈ 0.559 µM)	0.5 µg/mL (≈ 0.28 µM)	0.5 µg/mL (≈ 0.28 µM)	1 µg/mL (≈ 0.559 µM)	0.5 µg/mL (≈ 0.28 µM)	≤ 0.06 µg/mL	≤ 0.06 µg/mL	2 µg/mL (≈ 1.12 µM)	1 µg/mL (≈ 0.559 µM)	0.13 mg/kg/2	0.039 mg/kg/2	0.036 mg/kg/2	0.50 µg/mL	0.072 µg/mL	2.8 µg/mL (≈ 1.57 µM)	8.0 µg/mL (≈ 4.47 µM)	MIC [9]: ≤ 0.06 µg/mL; MIC [13]: ≤ 0.06 µg/mL; MIC [16]: ≤ 0.06 µg/mL; MIC [17]: > 64 µg/mL; MIC [21]: ≤ 0.06 µg/mL; MIC [29]: 8.0 µg/mL (≈ 4.47 µM); MIC [30]: 8 µg/mL (≈ 4.47 µM); MIC [31]: 16 µg/mL (≈ 8.95 µM); MIC [32]: 64 µg/mL (≈ 35.8 µM); MIC [33]: 16 µg/mL (≈ 8.95 µM)
CNC(CC(C)C)C(=O)NC1C(=O)NC(CC(N)=O)C(=O)NC2C(=O)NC3C(=O)NC(C(=O)NC(C(=O)O)c4cc(O)cc(O)c4-c4cc3ccc4O)C(OC3CC(C)(N)C(O)C(C)O3)c3ccc(c(Cl)c3)Oc3cc2cc(c3OC2OC(CO)C(O)C(O)C2OC2CC(C)(NCc3ccc(C=Cc4ccccc4)cc3)C(O)C(C)O2)Oc2ccc(cc2Cl)C1O (stereo not drawn) [Compound 29]	1 µg/mL (≈ 0.56 µM)	0.25 µg/mL (≈ 0.14 µM)	≤ 0.06 µg/mL	0.25 µg/mL (≈ 0.14 µM)	1 µg/mL (≈ 0.56 µM)	0.25 µg/mL (≈ 0.14 µM)	0.25 µg/mL (≈ 0.14 µM)	0.25 µg/mL (≈ 0.14 µM)	≤ 0.06 µg/mL	0.25 µg/mL (≈ 0.14 µM)	0.25 µg/mL (≈ 0.14 µM)	4 µg/mL (≈ 2.24 µM)	1 µg/mL (≈ 0.56 µM)	0.088 mg/kg/2	0.1 mg/kg/2	0.054 mg/kg/2	0.21 µg/mL	0.031 µg/mL	4.0 µg/mL (≈ 2.24 µM)	8.0 µg/mL (≈ 4.48 µM)	MIC [9]: ≤ 0.06 µg/mL; MIC [11]: 0.25 µg/mL (≈ 0.14 µM); MIC [16]: 0.25 µg/mL (≈ 0.14 µM); MIC [18]: 0.5 µg/mL (≈ 0.28 µM); MIC [29]: 5.7 µg/mL (≈ 3.19 µM); MIC [30]: 6.7 µg/mL (≈ 3.75 µM); MIC [31]: 16 µg/mL (≈ 8.97 µM); MIC [32]: 32 µg/mL (≈ 17.9 µM); MIC [33]: 8 µg/mL (≈ 4.48 µM)
CNC(CC(C)C)C(=O)NC1C(=O)NC(CC(N)=O)C(=O)NC2C(=O)NC3C(=O)NC(C(=O)NC(C(=O)O)c4cc(O)cc(O)c4-c4cc3ccc4O)C(OC3CC(C)(N)C(O)C(C)O3)c3ccc(c(Cl)c3)Oc3cc2cc(c3OC2OC(CO)C(O)C(O)C2OC2CC(C)(NCc3ccc(-c4ccc(-c5ccccc5)cc4)cc3)C(O)C(C)O2)Oc2ccc(cc2Cl)C1O (stereo not drawn) [Compound 36]	2 µg/mL (≈ 1.09 µM)	4 µg/mL (≈ 2.18 µM)	≤ 0.06 µg/mL	2 µg/mL (≈ 1.09 µM)	8 µg/mL (≈ 4.36 µM)	2 µg/mL (≈ 1.09 µM)	1 µg/mL (≈ 0.545 µM)	4 µg/mL (≈ 2.18 µM)	2 µg/mL (≈ 1.09 µM)	0.25 µg/mL (≈ 0.136 µM)	1 µg/mL (≈ 0.545 µM)	4 µg/mL (≈ 2.18 µM)	8 µg/mL (≈ 4.36 µM)	0.19 mg/kg/2	0.28 mg/kg/2	0.31 mg/kg/2	0.25 µg/mL	0.21 µg/mL	9.2 µg/mL (≈ 5.01 µM)	16 µg/mL (≈ 8.72 µM)	MIC [7]: 2 µg/mL (≈ 1.09 µM); MIC [11]: 4 µg/mL (≈ 2.18 µM); MIC [18]: 2 µg/mL (≈ 1.09 µM); MIC [29]: 16 µg/mL (≈ 8.72 µM); MIC [30]: 16 µg/mL (≈ 8.72 µM); MIC [31]: 32 µg/mL (≈ 17.4 µM); MIC [32]: 32 µg/mL (≈ 17.4 µM); MIC [33]: 32 µg/mL (≈ 17.4 µM)
